{
  "source": "patent US20020032154A1",
  "about": "“Interferon-suppressing placental lactogen peptides” (priority 2000, published 2002)",
  "molecules": {"B1": {"name": "hPL: full-length human placental lactogen, mature polypeptide encoded by hPL-3 and hPL-4 genes (protein, UniProt P0DML2 27-217, looked up)", "Chorionic somatomammotropin …": "VQTVPLSRLFDHAMLQAHRAHQLAIDTYQEFEETYIPKDQKYSFLHDSQTSFCFSDSIPTPSNMEETQQKSNLELLRISLLLIESWLEPVRFLRSMFANNLVYDTSDSDDYHLLKDLEEGIQTLMGRLEDGSRRTGQILKQTYSKFDTNSHNHDALLKNYGLLYCFRKDMDKVETFLRMVQCRSVEGSCGF"}, "B2": {"name": "hPRL: Human prolactin (protein, UniProt P01236 29-227, looked up)", "Prolactin": "LPICPGGAARCQVTLRDLFDRAVVLSHYIHNLSSEMFSEFDKRYTHGRGFITKAINSCHTSSLATPEDKEQAQQMNQKDFLSLIVSILRSWNEPLYHLVTEVRGMQEAPEAILSKAVEIEEQTKRLLEGMELIVSQVHPETKENEIYPVWSGLPSLQMADEESRLSAYYNLLHCLRRDSHKIDNYLKLLKCRIIHNNNC"}},
  "key": {"[1]": {"details": "glucose-dependent manner; cited from earlier work"}, "[2]": {"biological_target": "insulin receptor (Homo sapiens, UniProt P06213)", "details": "isolated cells; cited from earlier work"}, "[3]": {"details": "intravenous insulin tolerance test; cited from earlier work"}, "[4]": {"system": "MHC class II antigens (HLA-DR, DP, and DQ)", "assay": "Flow cytometry of IFN-gamma-inducible MHC class II antigens in stably transfected HeLa cells", "format": "cell-based, human", "details": "HeLa cells stably expressing the peptide; any dose of IFN-gamma up to 1000 U/ml, 42 h; vs vector-transfected control cells", "method": "(§1) For this reason the function of the cloned cDNA was tested directly using pools of stably transfected HeLa cells. Expression of three families of endogenous IFN-gamma-responsive genes in this reporter cell line was determined by flow cytometry using monoclonal antibodies that recognize MHC class II antigens (HLA-DR, DP, and DQ alpha chains), MHC class I heavy chains (HLA-A, B, and C ), and ICAM-1 antigen.\n(§2) The hPL(1-28)-encoding cDNA was subcloned into the mammalian expression vector pSH4-hphm using standard methods. HeLa cells (100 mm dishes) were transfected with […] of HPL(1-28)-pSH4-hph^m DNA or empty vector (negative control) by calcium phosphate-mediated transfection. Stable transfectants were selected with hygromycin at […] for at least 16 days. Flow cytometric analysis was performed on stably transfected pools of cells that were treated in culture with IFN-gamma (0, 20, 66, 200, and 1000 U/ml) for 42 h and suspended for analysis by light trypsinization. […] Antibody binding was detected with FITC-goat anti-mouse antibody (Biomeda), and 20,000 cells were analyzed with a FACScan (Becton-Dickinson)."}, "[5]": {"system": "MHC class I antigens (HLA-A, B, and C)", "assay": "Flow cytometry of constitutive and IFN-gamma-inducible MHC class I antigens in stably transfected HeLa cells", "format": "cell-based, human", "details": "HeLa cells stably expressing the peptide", "method": "as §1, §2"}, "[6]": {"system": "ICAM-1 antigen", "assay": "Flow cytometry of ICAM-1 antigen in stably transfected HeLa cells", "format": "cell-based, human", "details": "HeLa cells stably expressing the peptide", "method": "as §1\nThe hPL(1-28)-encoding cDNA was subcloned into the mammalian expression vector pSH4-hphm using standard methods. HeLa cells (100 mm dishes) were transfected with […] of HPL(1-28)-pSH4-hph^m DNA or empty vector (negative control) by calcium phosphate-mediated transfection. Stable transfectants were selected with hygromycin at […] for at least 16 days. Flow cytometric analysis was performed on stably transfected pools of cells that were treated in culture with IFN-gamma (0, 20, 66, 200, and 1000 U/ml) for 42 h and suspended for analysis by light trypsinization. Cells were stained at 4° C. with 10 µg/ml solutions of mAb CR 3/43 (Dako) specific for MHC class II antigens HLA-DP, HLA-DQ, and HLA-DR, mAb G46-2.6 (Pharmingen) specific for MHC class I antigens HLA-A, HLA-B, and HLA-C heavy chains, mAb HA58 (Pharmingen) specific for ICAM-1 antigen, and either non-immune mouse IgG1 or IgG2a as negative control. Antibody binding was detected with FITC-goat anti-mouse antibody (Biomeda), and 20,000 cells were analyzed with a FACScan (Becton-Dickinson)."}, "[7]": {"system": "peripheral blood T-lymphocyte", "details": "in vitro; exogenous full-length hormone; cited from earlier work"}, "[8]": {"system": "tonsil B-lymphocyte", "details": "in vitro; exogenous full-length hormone; cited from earlier work"}, "[9]": {"system": "bovine brain capillary endothelial cell (BBCE)", "details": "cited from earlier work"}, "[10]": {"biological_target": "T1, hGH receptor (Homo sapiens, UniProt P10912)", "T1 sequence (P10912 19-638)": "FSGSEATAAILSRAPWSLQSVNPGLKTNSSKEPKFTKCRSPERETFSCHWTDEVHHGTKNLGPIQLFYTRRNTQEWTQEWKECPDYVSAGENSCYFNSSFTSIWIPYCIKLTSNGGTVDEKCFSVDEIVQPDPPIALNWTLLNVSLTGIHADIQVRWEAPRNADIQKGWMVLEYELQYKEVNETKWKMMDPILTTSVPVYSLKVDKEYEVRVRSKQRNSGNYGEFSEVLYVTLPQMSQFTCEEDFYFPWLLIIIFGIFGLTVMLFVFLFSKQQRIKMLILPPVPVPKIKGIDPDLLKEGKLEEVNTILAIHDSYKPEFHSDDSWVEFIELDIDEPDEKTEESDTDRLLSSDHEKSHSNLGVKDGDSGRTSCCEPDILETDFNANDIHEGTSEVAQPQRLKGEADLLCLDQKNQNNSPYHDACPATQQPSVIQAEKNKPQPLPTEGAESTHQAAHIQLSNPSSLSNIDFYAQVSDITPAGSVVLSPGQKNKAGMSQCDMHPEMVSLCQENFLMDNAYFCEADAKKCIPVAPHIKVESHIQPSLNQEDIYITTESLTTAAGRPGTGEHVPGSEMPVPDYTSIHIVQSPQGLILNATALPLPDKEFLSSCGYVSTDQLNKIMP", "details": "relative to hGH; cited from earlier work"}},
  "data": [
    {"molecule": "hGH(6-13): octapeptide representing residues 6-13 of hGH (LSRLFDNA; UniProt P01241 32-39, looked up, fragment)", "values": [
      {"measurement": "insulin secretion", "setting": "[1]", "result": "augmented"},
      {"measurement": "binding of insulin to insulin receptor", "setting": "[2]", "result": "increased"},
      {"measurement": "hypoglycemic activity", "setting": "[3]", "result": "hypoglycemic activity"}
    ]},
    {"molecule": "VQTVPLSRLFDHAMLQAHRAHQLAIDTY (VQTVPLSRLFKEAMLQAHRAHQLAIDTY; HOMO SAPIENS; hPL(1-28) peptide) [isolated peptide, N-terminal 28 residues of secreted human placental lactogen; tested as product of transfected cDNA]", "values": [
      {"measurement": "levels of HLA-DR, DP, and DQ antigens after IFN-gamma treatment", "setting": "[4]", "result": "not increased"},
      {"measurement": "IFN-gamma-induced high level expression of class I genes", "setting": "[5]; IFN-gamma treatment 42 h", "result": "did not induce high level expression"},
      {"measurement": "constitutive expression of MHC class I genes (HLA-A, B, and C antigens)", "setting": "[5]; absence of IFN-gamma", "result": "not reduced"},
      {"measurement": "fraction of ICAM-1 high-level positive cells", "setting": "[6]; 20 U/ml of IFN-gamma", "result": "less"},
      {"measurement": "cells expressing ICAM-1 at high level", "setting": "[6]; absence of IFN-gamma treatment", "result": "More than 50%"},
      {"measurement": "fraction of ICAM-1 high-level positive cells", "setting": "[6]; higher doses of IFN-gamma (above 20 U/ml)", "result": "still lower"}
    ]},
    {"molecule": "B1", "values": [
      {"measurement": "peripheral blood T-lymphocyte mitogenic response to phytohemagglutinin", "setting": "[7]", "result": "reduced"},
      {"measurement": "tonsil B-lymphocyte mitogenic response to lipopolysaccharide", "setting": "[8]", "result": "reduced"},
      {"measurement": "effect on bFGF-induced BBCE cell proliferation", "setting": "[9]", "result": "no significant additive somatotropic effect"},
      {"measurement": "binding to the hGH receptor, weaker than hGH", "setting": "[10]", "result": 2300, "unit": "fold"}
    ]},
    {"molecule": "B2", "values": [
      {"measurement": "effect on bFGF-induced BBCE cell proliferation", "setting": "[9]", "result": "no significant additive somatotropic effect"}
    ]}
  ]
}
